Experiments:
[1] = test system: Podosphaera xanthii (syn. Sphaerotheca fuliginea); experiment: Foliar spray on powdery mildew-infected cucumber plants; conditions: for Percentage of reduction of cucumber powdery mildew: Table 5, 1/500 (w/v) in water
Experimental: Compositions 1 to 4 (Table 1) were applied by foliar spray 7 to 10 days after the inoculation of cucumber plants with powdery mildew spores (infected with 3-4×10^4 spores/mL of Podosphaera xanthii (syn. Sphaerotheca fuliginea)).
Each composition was sprayed once on cucumber leaves and disease assessment was performed after 3, 6, 8 and 12 days. […] For each composition, the assay was repeated three times and the results illustrated in Table 2 represent the average of these three assays.
As previously indicated, some garlic-based compositions are described in U.S. Pat. No. 6,231,865. Particular attention is paid to Samples 1 to 4 disclosed in column 2 of this document.

Oidium neolycopersici = experiment: Semi-commercial greenhouse trial, tomato powdery mildew; type: in vivo
Experimental: Surface-sterilized tomato seeds (cv. Trust) were sown in rock wool cubes and fertilized daily with a standard nutrient solution. Seedlings were grown for 4 wk on a greenhouse bench at 21-24° C. with a 16 h photoperiod and transplanted (at the early flower stage) into rook wool in 13.5 L plastic bags perforated on the upper face in order to insert two rock wool cubes per bag. Plants at the 12-15 leaf stage were inoculated by rubbing a piece of tomato leaf heavily infected by Oidium neolycopersici onto leaf 7. At the onset of the first powdery mildew colonies (after 7-10 days), plants were sprayed with each formulation or with sulphur (the currently applied fungicide in tomato greenhouses) while controls were sprayed with water. The treatments were arranged in a randomized complete block design with 6 plants per treatment and three replications. All treatments with the garlic compositions were repeated once a week.
The treatments included: 1) Dehydrated garlic extracts-chitosan lactate (composition 1); 2) Dehydrated garlic extracts alone (composition 2); 3) chitosan lactate alone (composition 3); 4) sulphur; 5) water; and 6) water+vegetable oil (composition 4).
Disease severity was assessed three and six days after each treatment and evaluated as percentage of leaf area covered by powdery mildew. The assessments were made on a “low” leaf level (about leaf 3), a “middle” leaf level (leaves 6 and 9) and a “high” leaf level (about leaf 12) on three leaves for each level. For each treatment, […] yield was evaluated on 3 plants per replication. Data were analyzed by analysis of variance using the SAS procedure (SAS Inst., Inc., Cary, N.C.). The LSMEANS option was used to generate the probability of difference between all the variables in the study. Single degrees of freedom orthogonal contrasts were used to compare effects of the composition vs. chitosan lactate alone, the composition vs. water or water and oil, and the composition vs. sulphur. It is of note that powdery mildew on tomato is much less aggressive than it is on cucumber.

[2] = 3 plants of tomato, cv. Trust, 14 weeks after harvest

CCCCCCCCCCCCOS(=O)(=O)[O-].[Na+] [Sodium dodecyl sulfate]
Percentage of reduction of cucumber powdery mildew ([1]; 3 days): 100%
Percentage of reduction of cucumber powdery mildew ([1]; 6 days): 100%
Percentage of reduction of cucumber powdery mildew ([1]; 8 days): 100%
Percentage of reduction of cucumber powdery mildew ([1]; 12 days): 95%
Phytotoxicity on cucumber plants ([1]; days following the application): phytoxicity developed

S1SSSSSSS1 [Sulphur]
Average fruit weight, class 1 (Oidium neolycopersici; [2]): 164 ± 3 g
Total fruit yield, class 1 (Oidium neolycopersici; [2]): 16.3 ± 1.1 Kg/m^2
Total number of fruits, class 1 (Oidium neolycopersici; [2]): 100 ± 5.0 tomatos/m^2
Disease incidence after 14 weeks (% of infection) (Oidium neolycopersici; percentage of leaf area covered by powdery mildew, tomato cv. Trust): 0.28 ± 0.08 % of infection
Reduction of the incidence of powdery mildew in tomato (disease control) (Oidium neolycopersici; tomato greenhouse trial): ~100%

Source: US20080260876A1, “Garlic Extract Compositions, Uses And Preparations Thereof” (priority 2005, published 2008)
